# Tested on: Ovalbumin mRNA (OVA mRNA)
# Test: Ovalbumin mRNA in vivo delivery and immunization performance of lipid nanoparticles (ELISA IgG titer)
# Design: species or system BALB/c mice
# Details: LNP with OVA mRNA, 0.5 mg/kg subcutaneous injection Day 0 and Day 7, blood on the 21st day, FIG. 1 and FIG. 2
# Procedure: Evaluation of Ovalbumin mRNA In Vivo Delivery and Immunization Performance of Lipid Nanoparticles (Delivery Vector) Prepared from Amino Lipid Compounds • Preparation process: The amino lipid compound described in the present invention, DSPC, cholesterol, and PEG2000-DMG were mixed and dissolved in absolute ethanol in a molar ratio of 50:10:38.5:1.5. Ovalbumin mRNA (OVA mRNA) was dissolved in a sodium acetate solution (50 mM, pH=4.0). Two microinjection pumps were used, and the ratio of ethanol solution to sodium acetate solution (50 mM, pH=4.0) was controlled to be 1:3. A crude solution of lipid nanoparticles was prepared in a microflow channel chip, then dialyzed for 6 hours with 1×PBS at a controlled temperature of 4° C. by using a dialysis cassette (Fisher, MWCO 20,000), and filtered with a 0.22 μm microporous filter membrane before use. The mass ratio of the amino lipid compound to ovalbumin mRNA (OVA mRNA) was about 10:1. • Animal preparation: 6-week-old male BALB/c mice with body weights of about 20 g were selected, and fed in an SPF-grade feeding room. Animal experiments were strictly carried out according to the guidelines of the national health institution and the requirements of animal ethics. • In vivo delivery: 3 mice were randomly selected per group and injected with lipid nanoparticles at a dose of 0.5 mg/kg by subcutaneous injection (Day 0). After 7 days, the same amount was used for another boost (Day 7). Tail vein blood was taken on the 21st day for the serological analysis. DLin-MC3 was used as the control. • Enzyme-linked immunosorbent assay (ELISA): a flat-bottomed 96-well plate (Nunc) was pre-coated with a concentration of OVA protein of 0.5 μg protein per well in 50 mM carbonate buffer (pH 9.6), and was allowed to stay overnight at 4° C., and then blocked with 5% glycine. Anti-serums, proteins obtained from immune animals, were diluted from 10^2 to 10^6 with PBS-0.05% Tween (PBS-T) at pH 7.4, added to the wells and incubated at room temperature, and placed at 37° C. for 1 hour. Horseradish peroxidase (HRP) coupled goat anti-mouse IgG was used for labeling in PBS-T-1% BSA at a dilution rate of 1:10,000. After the addition of the HRP substrate, the optical density was determined at a wavelength, and the absorbance at 450 nm was measured in an ELISA microplate reader (Bio-Rad).
# It will be appreciated that modifications and variations are possible to those skilled in the art in light of the above teachings, and it is intended that the present invention cover all such modifications and variations as fall within the scope of the appended claims.
row,SMILES,IgG antibody titers compared with the DLin-MC3 control group
1,CCCCCCCCCCCCN1C(=O)C[C@H](C(=O)NCCN(C)C)[C@H]1CCCCCCCCCCC (racemic) [Compound N12A12C4D1],significantly superior
2,CCCCC/C=C\C/C=C\CCCCCCC[C@@H]1[C@@H](C(=O)OCCN2CCCCC2)CC(=O)N1CCCCCCCCCCCC (racemic) [Compound N12A20C4O10],significantly superior
3,CCCCCCCCCCCCCCCCN1C(=O)CC[C@H](C(=O)OCCN2CCCCC2)[C@H]1CCCCCCCCC (racemic) [Compound N16A10C5O10],significantly superior
4,CCCCCCCCCCCCN1C(=O)C[C@H](C(=O)OCCCN(C)C)[C@H]1CCCCCCCCCCC (racemic) [Compound N12A12C4O2],comparable

# Tested on: Luciferase mRNA (Fluc mRNA)
# Test: Luciferase mRNA in vivo delivery performance of lipid nanoparticles prepared from amino lipid compounds
# Design: species or system BALB/c mice
# Details: batch 1; LNP with Fluc mRNA, 0.5 mg/kg intramuscular injection, mice, total fluorescence intensity imaged 6 hours after dosing
# Procedure: Evaluation of Luciferase mRNA In Vivo Delivery Performance of Lipid Nanoparticles Prepared from Amino Lipid Compounds • Preparation process: The delivery vector in the present invention, DSPC, cholesterol, and PEG2000-DMG were mixed and dissolved in absolute ethanol in a molar ratio of 50:10:38.5:1.5. Luciferase mRNA (Fluc mRNA) was dissolved in a sodium acetate solution (50 mM, pH=4.0). Two microinjection pumps were used, and the ratio of ethanol solution to sodium acetate solution (50 mM, pH=4.0) was controlled to be 1:3. A crude solution of lipid nanoparticles was prepared in a microflow channel chip, then dialyzed for 6 hours with 1×PBS (phosphate buffer solution) at a controlled temperature of 4° C. by using a dialysis cassette (Fisher, MWCO 20,000), and filtered with a 0.22 μm microporous filter membrane before use. The mass ratio of the amino lipid compound to luciferase mRNA (Fluc mRNA) was about 10:1. • Animal preparation: 6-week-old male BALB/c mice with body weights of about 20 g were selected, and fed in an SPF-grade feeding room. Animal experiments were strictly carried out according to the guidelines of the national health institution and the requirements of animal ethics. • In vivo delivery: 3 mice were randomly selected per group and injected with lipid nanoparticles at a dose of 0.5 mg/kg by intramuscular injection. After 6 hours, 200 μL of 10 mg/mL potassium […] was injected into each mouse via the tail vein, and after 10 minutes, the mice were placed under an in vivo imaging system (IVIS-200, Xenogen), and the total fluorescence intensity of each mouse was observed and recorded by photographing.
# Table 1 provides the expression intensities of Fluc mRNA delivered by the intramuscular injection administration of the representative amino lipid compounds with DLin-MC3 as the control (two batches of tests in total).
row,SMILES,Fluorescence intensity
1,CCCCCCCC/C=C\CCCCCCC[C@@H]1[C@@H](C(=O)OCCN2CCCCC2)CC(=O)N1CCCCCCCCCCCC (racemic) [Compound 16],1.4E+07
2,CCCCC/C=C\C/C=C\CCCCCCC[C@@H]1[C@@H](C(=O)OCCCN(C)C)CC(=O)N1CCCCCCCCCCCCC (racemic) [Compound 19],2.1E+06
3,CCCCCCCCCCCCCCCCN1C(=O)C[C@H](C(=O)NCCN2CCCCC2)[C@H]1CCCCCCCC (racemic) [Compound 9],6.1E+06
4,CCCCCCCC/C=C\CCCCCCC[C@@H]1[C@@H](C(=O)OCCN2CCCC2)CC(=O)N1CCCCCCCCCCCCCCCC (racemic) [Compound 15],2.8E+07
5,CCCCCCCCCCCCN1C(=O)C[C@H](C(=O)NCCN(C)C)[C@H]1CCCCCCCCCCC (racemic) [Compound N12A12C4D1],2.9E+07
6,CCCCCCCCCCCCCCCCC[C@@H]1[C@@H](C(=O)OCC2CCN(C)CC2)CCC(=O)N1CCCCCCCCCCCC (racemic) [Compound 7],6.1E+05
7,CCCCC/C=C\C/C=C\CCCCCCC[C@@H]1[C@@H](C(=O)OCCN2CCCCC2)CC(=O)N1CCCCCCCCCCCC (racemic) [Compound N12A20C4O10],2.7E+06
8,CCCCCCCC/C=C\CCCCCCCCN1C(=O)C[C@H](C(=O)NCCCN(C)C)[C@H]1CCCCCCCCCCC (racemic) [Compound 11],2.1E+06
9,CCCCCCCCCCCCCCCCN1C(=O)CC[C@H](C(=O)OCCCN2CCN(C)CC2)[C@H]1CCCCCCCCC (racemic) [Compound 4],2.8E+06
10,CCCCC/C=C\C/C=C\CCCCCCC[C@@H]1[C@@H](C(=O)OCCN2CCCC2)CC(=O)N1CCCCCCCCCCCCCCCC (racemic) [Compound 20],5.2E+06
11,CCCCCCCCCCCCCCCCN1C(=O)CC[C@H](C(=O)OCCN2CCCCC2)[C@H]1CCCCCCCCC (racemic) [Compound N16A10C5O10],4.5E+06
12,CCCCCCCCCCCCCCC[C@@H]1[C@@H](C(=O)OCCN2CCCCC2)CCC(=O)N1CCCCCCCCCCCCC (racemic) [Compound 6],3.1E+05
13,CCCCCCCCCCCCN1C(=O)C[C@H](C(=O)OCCCN(C)C)[C@H]1CCCCCCCCCCC (racemic) [Compound N12A12C4O2],2.8E+06
14,"CCCCC/C=C\C/C=C\CCCCCCCCC(CCCCCCCC/C=C\C/C=C\CCCCC)OC(=O)CCCN(C)C [Dlin-MC3, reference compound]",7.7E+06
15,CCCCCCCCCCCCCCCCC[C@@H]1[C@@H](C(=O)NCCN2CCN(C)CC2)CC(=O)N1CCCCCC (racemic) [Compound 10],8.1E+05
16,CCCCCCCCCCCCCCCCN1C(=O)CC[C@H](C(=O)OCCN2CCOCC2)[C@H]1CCCCCCCCCCC (racemic) [Compound 3],5.1E+06

# Same assay, conditions: batch 2; LNP with Fluc mRNA, 0.5 mg/kg intramuscular injection, mice, total fluorescence intensity imaged 6 hours after dosing
row,SMILES,Fluorescence intensity
1,CCCCC/C=C\C/C=C\CCCCCCCCN1C(=O)C[C@H](C(=O)OCCCN2CCN(C)CC2)[C@H]1CCCCCCCCCCCC (racemic) [Lipid 6],3.7E+06
2,CCCCCCCC/C=C\CCCCCCCCN1C(=O)C[C@H](C(=O)OCCN2CCCCC2)[C@H]1CCCCCCCCC (racemic) [Lipid 1],8.8E+06
3,CCCCC/C=C\C/C=C\CCCCCCCC[C@@H]1[C@@H](C(=O)OCCN2CCCCC2)CC(=O)N1CCCCCCCCCCCC (racemic) [Lipid 9],4.2E+06
4,CCCCCCCC/C=C\CCCCCCCCN1C(=O)C[C@H](C(=O)OCCN2CCCC2)[C@H]1CCCCCCCCCCCCCCCCC (racemic) [Lipid 3],2.9E+07
5,CCCCC/C=C\C/C=C\CCCCCCCCN1C(=O)C[C@H](C(=O)OCCN2CCCC2)[C@H]1CCCCCCCCCCCCCC (racemic) [Lipid 5],7.6E+06
6,CCCCCCCC/C=C\CCCCCCC[C@@H]1[C@@H](C(=O)OCCN2CCCC2)CC(=O)N1CCCCCCCCCCCCCCCC (racemic) [Lipid 7],4.8E+07
7,CCCCC/C=C\C/C=C\CCCCCCCC[C@@H]1[C@@H](C(=O)OCC2CCN(C)CC2)CC(=O)N1CCCCCCCCCCCCC (racemic) [Lipid 10],3.6E+06
8,"CCCCC/C=C\C/C=C\CCCCCCCCC(CCCCCCCC/C=C\C/C=C\CCCCC)OC(=O)CCCN(C)C [Dlin-MC3, reference compound]",6.9E+06
9,CCCCCCCC/C=C\CCCCCCCCN1C(=O)C[C@H](C(=O)OCCCN(C)C)[C@H]1CCCCCCCCCCCCCC (racemic) [Lipid 2],4.9E+06
10,CCCCCCCC/C=C\CCCCCCC[C@@H]1[C@@H](C(=O)OCCN2CCCCC2)CC(=O)N1CCCCCCCCCCCC (racemic) [Lipid 8],2.3E+07
